Source: ChEMBL document CHEMBL1909046, “DrugMatrix in vitro pharmacology data”

What was measured:
[1] = DRUGMATRIX: Tumor Necrosis Factor (TNF), Non-Selective radioligand binding (ligand: [125I] TNF-alpha); type: cell membranes, Membrane; conditions: u-937; Not Active = under 50% inhibition at 10 µM
D(1A) dopamine receptor = D(1A) dopamine receptor (Homo sapiens, UniProt P21728); experiment: DRUGMATRIX: Dopamine D1 radioligand binding (ligand: [3H] SCH-23390); type: cell membranes, CHO, Membrane; conditions: cho; Not Active = under 50% inhibition at 10 µM
Sequence of D(1A) dopamine receptor (P21728 whole entry): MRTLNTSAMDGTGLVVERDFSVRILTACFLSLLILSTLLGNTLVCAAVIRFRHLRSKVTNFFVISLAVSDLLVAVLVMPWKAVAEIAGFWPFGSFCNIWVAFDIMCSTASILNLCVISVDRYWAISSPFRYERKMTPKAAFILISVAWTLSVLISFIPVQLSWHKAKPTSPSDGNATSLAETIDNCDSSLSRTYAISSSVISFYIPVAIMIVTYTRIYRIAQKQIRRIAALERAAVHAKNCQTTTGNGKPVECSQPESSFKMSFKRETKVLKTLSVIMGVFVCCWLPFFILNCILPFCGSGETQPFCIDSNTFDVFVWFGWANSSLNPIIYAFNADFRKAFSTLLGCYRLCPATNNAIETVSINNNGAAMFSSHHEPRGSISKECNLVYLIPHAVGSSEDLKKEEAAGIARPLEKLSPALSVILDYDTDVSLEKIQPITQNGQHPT

[2] = target: T1, Neuropeptide Y receptor type 2 (Homo sapiens, UniProt P49146); type: cell membranes, Membrane; conditions: kan-ts; note: in other assays of this panel Not Active means under 50% inhibition at 10 µM
T1 sequence (P49146 whole entry): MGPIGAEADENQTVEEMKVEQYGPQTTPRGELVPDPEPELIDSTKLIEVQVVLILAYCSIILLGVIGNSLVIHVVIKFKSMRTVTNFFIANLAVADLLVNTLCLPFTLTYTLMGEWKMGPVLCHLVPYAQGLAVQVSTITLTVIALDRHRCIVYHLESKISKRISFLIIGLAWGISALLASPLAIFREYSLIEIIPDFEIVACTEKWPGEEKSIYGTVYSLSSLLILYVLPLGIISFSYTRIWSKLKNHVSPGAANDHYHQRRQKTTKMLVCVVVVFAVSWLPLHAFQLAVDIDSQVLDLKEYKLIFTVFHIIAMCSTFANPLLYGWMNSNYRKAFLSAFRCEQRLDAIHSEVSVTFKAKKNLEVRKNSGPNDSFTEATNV

[3] = target: Platelet-activating factor receptor (Homo sapiens, UniProt P25105); type: tissue-based; note: in other assays of this panel Not Active means under 50% inhibition at 10 µM
Sequence of Platelet-activating factor receptor (P25105 whole entry): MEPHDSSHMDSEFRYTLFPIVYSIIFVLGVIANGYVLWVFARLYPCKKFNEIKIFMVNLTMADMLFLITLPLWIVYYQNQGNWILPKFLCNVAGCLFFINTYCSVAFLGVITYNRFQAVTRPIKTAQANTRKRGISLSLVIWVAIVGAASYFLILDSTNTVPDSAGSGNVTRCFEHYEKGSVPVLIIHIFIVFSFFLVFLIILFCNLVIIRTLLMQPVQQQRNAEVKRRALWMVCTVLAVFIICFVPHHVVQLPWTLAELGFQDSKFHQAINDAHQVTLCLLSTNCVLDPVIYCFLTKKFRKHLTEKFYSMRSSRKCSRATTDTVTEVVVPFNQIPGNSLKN

[4] = target: Mitogen-activated protein kinase 3 (Homo sapiens, UniProt P27361); experiment: DRUGMATRIX: Protein Serine/Threonine Kinase, ERK1 enzyme inhibition (substrate: Myelin Basic Protein); parameters: species or system Escherichia coli; conditions: Not Active = under 50% inhibition at 10 µM
Sequence of Mitogen-activated protein kinase 3 (P27361 whole entry): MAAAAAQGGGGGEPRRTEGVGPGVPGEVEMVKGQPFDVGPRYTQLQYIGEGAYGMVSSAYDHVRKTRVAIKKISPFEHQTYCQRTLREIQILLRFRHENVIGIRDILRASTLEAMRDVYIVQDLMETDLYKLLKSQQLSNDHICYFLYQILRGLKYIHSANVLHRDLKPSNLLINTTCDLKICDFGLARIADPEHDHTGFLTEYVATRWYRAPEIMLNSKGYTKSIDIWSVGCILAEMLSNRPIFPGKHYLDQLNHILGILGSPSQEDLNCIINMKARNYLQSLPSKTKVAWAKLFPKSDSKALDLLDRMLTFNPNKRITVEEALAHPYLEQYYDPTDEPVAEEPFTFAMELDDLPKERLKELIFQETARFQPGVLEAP

[5] = target: 5-hydroxytryptamine receptor 1B (Rattus norvegicus, UniProt P28564); type: cell membranes, Wistar, Cerebral cortex, Membrane; conditions: for Ki: read-out: Ki; for all read-outs here: in other assays of this panel Not Active means under 50% inhibition at 10 µM
Sequence of 5-hydroxytryptamine receptor 1B (P28564 whole entry): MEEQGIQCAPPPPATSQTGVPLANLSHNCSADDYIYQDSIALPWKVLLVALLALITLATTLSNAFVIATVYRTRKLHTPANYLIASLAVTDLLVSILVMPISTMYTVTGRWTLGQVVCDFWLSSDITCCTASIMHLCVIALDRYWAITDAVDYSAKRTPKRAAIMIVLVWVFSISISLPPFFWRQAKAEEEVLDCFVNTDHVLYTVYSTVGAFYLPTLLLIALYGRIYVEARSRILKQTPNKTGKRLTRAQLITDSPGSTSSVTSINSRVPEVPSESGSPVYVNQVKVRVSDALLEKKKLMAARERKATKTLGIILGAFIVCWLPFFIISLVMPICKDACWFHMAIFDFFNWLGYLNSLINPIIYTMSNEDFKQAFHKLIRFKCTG

Estrogen receptor beta = Estrogen receptor beta (Homo sapiens, UniProt Q92731); conditions: sf9; note: in other assays of this panel Not Active means under 50% inhibition at 10 µM
Sequence of Estrogen receptor beta (Q92731 whole entry): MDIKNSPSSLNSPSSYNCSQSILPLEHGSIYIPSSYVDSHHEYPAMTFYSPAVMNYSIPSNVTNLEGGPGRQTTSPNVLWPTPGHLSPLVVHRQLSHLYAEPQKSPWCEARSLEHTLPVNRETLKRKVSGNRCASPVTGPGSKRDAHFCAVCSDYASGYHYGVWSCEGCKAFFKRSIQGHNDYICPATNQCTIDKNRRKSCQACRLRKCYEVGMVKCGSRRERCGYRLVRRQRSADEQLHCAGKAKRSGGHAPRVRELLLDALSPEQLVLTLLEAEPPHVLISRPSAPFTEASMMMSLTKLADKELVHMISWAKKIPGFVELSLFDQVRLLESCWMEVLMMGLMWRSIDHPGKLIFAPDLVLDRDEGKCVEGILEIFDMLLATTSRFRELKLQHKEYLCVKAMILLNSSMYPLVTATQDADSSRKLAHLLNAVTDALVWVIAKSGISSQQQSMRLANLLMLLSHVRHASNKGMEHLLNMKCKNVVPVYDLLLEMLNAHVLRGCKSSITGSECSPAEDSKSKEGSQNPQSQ

Structure (SMILES) | IC50 [1] | Ki [1] | IC50 (D(1A) dopamine receptor) | IC50 [2] | IC50 [3] | IC50 [4] | IC50 [5] | IC50 (Estrogen receptor beta) | IC50 ([5]; read-out: IC50) | Ki [5]
CC(C)(C)NC(=O)[C@@H]1C[C@@H]2CCCC[C@@H]2CN1C[C@@H](O)[C@H](Cc1ccccc1)NC(=O)[C@H](CC(N)=O)NC(=O)c1ccc2ccccc2n1 | Not Active | Not Active | Not Active | Not Active | Not Active | Not Active | Not Active | Not Active |  | 
CC(=O)[C@@]1(O)CC[C@H]2[C@@H]3C[C@H](C)C4=CC(=O)CC[C@]4(C)[C@H]3CC[C@@]21C | Not Active | Not Active | Not Active | Not Active | Not Active | Not Active | Not Active | Not Active |  | 
N[C@@H](Cc1ccc(N(CCCl)CCCl)cc1)C(=O)O | Not Active | Not Active | Not Active | Not Active | Not Active | Not Active | Not Active | Not Active |  | 
CCCCc1oc2ccccc2c1C(=O)c1cc(I)c(OCCN(CC)CC)c(I)c1 [AMIODARONE] |  |  |  | Not Active | Not Active | Not Active |  | Not Active | 86.2 µM | 39.2 µM
OCCN(CCO)c1nc(N2CCCCC2)c2nc(N(CCO)CCO)nc(N3CCCCC3)c2n1 [DIPYRIDAMOLE] | Not Active | Not Active | Not Active | Not Active | Not Active | Not Active | Not Active | Not Active |  | 
Cc1oncc1C(=O)Nc1ccc(C(F)(F)F)cc1 [LEFLUNOMIDE] | Not Active | Not Active | Not Active | Not Active | Not Active | Not Active | Not Active | Not Active |  | 
c1ccc([C@H]2CN3CCSC3=N2)cc1 [LEVAMISOLE] | Not Active | Not Active | Not Active | Not Active | Not Active | Not Active | Not Active | Not Active |  | 
N[C@@H](Cc1ccc(O)c(O)c1)C(=O)O [LEVODOPA] | Not Active | Not Active | Not Active | Not Active | Not Active | Not Active | Not Active | Not Active |  | 
N[C@@H](Cc1cc(I)c(Oc2ccc(O)c(I)c2)c(I)c1)C(=O)O [LIOTHYRONINE] |  |  | Not Active | Not Active | Not Active | Not Active | Not Active |  |  | 
O=NN(CCCl)C(=O)NC1CCCCC1 [LOMUSTINE] | Not Active | Not Active | Not Active | Not Active | Not Active | Not Active | Not Active | Not Active |  | 
CN1CCN(CCCN2c3ccccc3Sc3ccc(Cl)cc32)CC1 [PROCHLORPERAZINE] |  |  |  | Not Active | Not Active | Not Active |  | Not Active | 2.65 µM | 1.2 µM
Cc1nc2n(c(=O)c1CCN1CCC(c3noc4cc(F)ccc34)CC1)CCCC2 [RISPERIDONE] |  |  |  | Not Active | Not Active | Not Active | Not Active |  |  | 
CC/C(=C(\c1ccccc1)c1ccc(OCCN(C)C)cc1)c1ccccc1 [TAMOXIFEN] |  |  |  | Not Active | Not Active | Not Active | Not Active |  |  | 
CC(C)N1CCN(c2ccc(OCC3COC(Cn4cncn4)(c4ccc(Cl)cc4Cl)O3)cc2)CC1 (configuration not stated) [TERCONAZOLE] |  |  |  | Not Active | Not Active | Not Active |  | Not Active | 89.9 µM | 40.9 µM
CC[C@]1(O)C[C@H]2CN(CCc3c([nH]c4ccccc34)[C@@](C(=O)OC)(c3cc4c(cc3OC)N(C=O)[C@H]3[C@@](O)(C(=O)OC)[C@H](OC(C)=O)[C@]5(CC)C=CCN6CC[C@]43[C@@H]65)C2)C1 [VINCRISTINE] | Not Active | Not Active | Not Active | Not Active | Not Active | Not Active | Not Active |  |  | 
